Experimental data from US6359145B1, “Imidazole compounds” (Fujisawa Pharmaceutical Co., Ltd., priority 1998, dated 2002).

How the values were obtained:
[1] = system: TNF-α and IL-10 amounts in plasma of LPS-injected BALB/c mice; experiment: Endotoxin-induced Cytokine Production; assay type: in vivo; details: 320 mg/kg, administered 30 minutes before LPS 0.1 mg/kg i.v.; plasma one hour after LPS; ELISA
Experimental: Endotoxin-induced Cytokine Production
BALB/c mice (male, 7 weeks old) were injected i.v. with 0.1 mg/kg of lipopolysaccharides (LPS) in a total volume of 0.2 ml saline. Heparinized blood samples were taken one hour after LPS injection and plasma was collected by centrifugation. TNF-α (inflammatory cytokine) and IL-10 (anti-inflammatory cytokine) amounts in plasma were assayed by ELISA. Test compounds were administered 30 minutes before LPS injection.

SMILES | melting point | IL-10 [1] [pg/mL] | TNF-α [1] [ng/mL]
Nc1nc(-c2cn([C@H](CO)CCc3ccccc3)cn2)n[nH]1 | 80 °C (dec.) | – | –
Cc1ccc(CCC(CO)n2cnc(C(N)=O)c2)cc1 (stereo not drawn) | 138 to 141 °C | – | –
Cc1ccccc1CC[C@H]([C@H](C)O)n1cnc(C(N)=O)c1 | 60 to 62 °C | – | –
CCCCCCC(CO)n1cnc(C(N)=O)c1 (stereo not drawn) | 97.5 to 100.5 °C | – | –
CCOC(=O)c1cccc(CCC(CO)n2cnc(C(N)=O)c2)c1 (stereo not drawn) | 92 to 95 °C | – | –
COC(=O)Cc1cccc(CCC(CO)n2cnc(C(N)=O)c2)c1 (stereo not drawn) | 138.5 to 141 °C | – | –
NC(=O)c1cn(C(CO)COc2ccccc2)cn1 (stereo not drawn) | 147.5 to 149.5 °C | – | –
NC(=O)c1cn(C(CO)c2ccccc2)cn1 (stereo not drawn) | 147 to 149 °C | – | –
C[C@H](O)[C@@H](CCc1cccc(Cl)c1Cl)n1cnc(C(N)=O)c1 | 70 to 75 °C | – | –
N#Cc1cn(C(CO)CCc2ccccc2)cn1 (stereo not drawn) | 111 to 115 °C | – | –
CCCC(CO)n1cnc(C(N)=O)c1 (stereo not drawn) | 160 °C | – | –
NC(=O)c1cn(C(CO)CCc2cccc(C(F)(F)F)c2)cn1 (stereo not drawn) | 103 to 106 °C | – | –
NC(=O)c1cn(C(CO)CCc2ccccc2)cn1 (stereo not drawn) [Example 1, 1-(1-Hydroxy-4-phenyl-2-butyl)imidazole-4-carboxamide] | 127 to 129.5 °C | 137 ± 14 | 3.1 ± 0.5
